Results reported in publication PMC10819771 (Pharmaceuticals, 2023).
“And” between values parts separate entries of the source, which are not always exact repeats. Identical values can stand only once. Like-named read-outs stand apart in the source and are kept apart here.

Key:
[1] = system: FBCL-2T; assay: FRET-melting, FBCL-2T; assay type: binding; settings: ligand 2 μM, DNA 0.2 μM, 10 mM KCl, 90 mM LiCl, pH 7.2
[2] = system: c-MYC (DNA, G4) TGAGGGTGGGTAGGGTGGGTAA; assay: native ESI-MS; settings: 100 mM NH4+ (ammonium acetate), pH 6.8, 10 µM DNA, 20 µM ligand, first of two successive steps
[3] = system: K562; assay: MTS cell proliferation assay, K562; assay type: cell-based, human; settings: for IC50: Homo sapiens, K562, 72 h, MTS, 3-day incubation, leukemia cells, read-out: IC50 Values (μM) ± SEM K562; for Selectivity Index HEK293/K562: IC50 HEK293 / IC50 K562
In short: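 K562 cells in RPMI 1640 with 10% FCS were exposed in quadruplicate to 0, 1, 5, 10, 20 and 50 μM compound for 1, 2 and 3 days. Viability was read by MTS conversion after 3 h at 37 °C, measured at 490 nm. CC50 after 3 days was obtained by linear regression (μM ± SD).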

[4] = system: ds26; assay: Native electrospray mass spectrometry, duplex control ds26; assay type: binding; settings: 10 µM DNA, 20 µM ligand; for Bound DNA (%) ds26: 100 mM ammonium acetate, hairpin duplex control
Procedure: (§1) These parameters ensured a good signal intensity without disrupting noncovalent complexes, which was verified using d[G4T4G4]2 as a control. Oligonucleotides were purchased lyophilized, and RP-cartridge purified from Eurogentec (Kanaka Eurogentec, Seraing, Belgium), then buffer exchanged with ammonium acetate (5 M; Sigma-Aldrich, Saint-Quentin-Fallavier, France) using Amicon Ultra (3 K cut-off; Merck Millipore, Cork, Ireland). Sample solutions were prepared by diluting the proper volume of oligonucleotide stock solutions to reach 10 µM of DNA and 20 µM of ligand, in 100 mM ammonium acetate. The solutions were incubated for 16 h at 4 °C before analysis. Kd were calculated as already described.

[5] = system: A2780; assay: MTT antiproliferative assay, A2780; assay type: cell-based, human; settings: for IC50: Homo sapiens, A2780, MTT, 72 h, ovarian cancer cells, read-out: IC50 Values (μM) ± SEM A2780; for Selectivity Index HEK293/A2780: IC50 HEK293 / IC50 A2780
In short: (§2)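 5000 cells/well; overnight attachment; 6 conc. (0.1–30.0 µM), 72 h, 37 °C/5% CO2, MEM + 10% FBS. MTT 4 h → formazan in DMSO → A545 nm vs untreated wells. ≥2 independent runs, 5 parallel wells each.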

[6] = system: FdxT; assay: FRET-melting, duplex control FdxT; assay type: binding; settings: ligand 2 μM, DNA 0.2 μM, 10 mM KCl, 90 mM LiCl, pH 7.2, hairpin duplex
[7] = system: 24TTG (DNA, G4) TTGGGTTAGGGTTAGGGTTAGGGA; assay: native ESI-MS; settings: 100 mM NH4+ (ammonium acetate), pH 6.8, 10 µM DNA, 20 µM ligand, first of two successive steps
[8] = system: BCL-2; assay: Native electrospray mass spectrometry, BCL-2; assay type: binding; settings: 10 µM DNA, 20 µM ligand; for Bound DNA (%) BCL-2: 100 mM ammonium acetate
Procedure: as §1

[9] = system: MDA-MB-231; assay: MTT antiproliferative assay, MDA-MB-231; assay type: cell-based, human; settings: for IC50: Homo sapiens, MDA-MB-231, 72 h, MTT, 72 h, breast cancer cells, read-out: IC50 Values (μM) ± SEM MDA-MB-231; for Selectivity Index HEK293/MDA-MB-231: IC50 HEK293 / IC50 MDA-MB-231
In short: as §2

[10] = system: FK-RAST; assay: FRET-melting, FK-RAST; assay type: binding; settings: ligand 2 μM, DNA 0.2 μM, 10 mM KCl, 90 mM LiCl, pH 7.2
[11] = system: c-MYC; assay: Native electrospray mass spectrometry, c-MYC; assay type: binding; settings: 10 µM DNA, 20 µM ligand; for Bound DNA (%) c-MYC: 100 mM ammonium acetate
Procedure: as §1

[12] = system: human telomeric sequence F21T; assay: FRET-melting, F21T; assay type: binding; settings: ligand 2 μM, DNA 0.2 μM, 10 mM KCl, 90 mM LiCl, pH 7.2
[13] = first binding event, read-out: Kd1 ds26
[14] = second binding event, read-out: Kd2 ds26
[15] = first binding event (1:1 complex), read-out: Kd1 BCL-2
[16] = second binding event (2:1 complex), read-out: Kd2 BCL-2
[17] = first binding event (1:1 complex), read-out: Kd1 c-MYC
[18] = second binding event (2:1 complex), read-out: Kd2 c-MYC

| Compound | ΔT1/2 (°C) FBCL-2T [1] | IC50 [3] [µM] | Selectivity Index HEK293/K562 [3] | Bound DNA (%) ds26 [4] [%] | Kd [4, 13] [µM] | Kd [4, 14] [µM] | IC50 [5] [µM] | Selectivity Index HEK293/A2780 [5] | ΔT1/2 (°C) FdxT [6] [°C] | Bound DNA (%) BCL-2 [8] [%] | Kd [8, 15] [µM] | Kd [8, 16] [µM] | IC50 [9] [µM] | Selectivity Index HEK293/MDA-MB-231 [9] | ΔT1/2 (°C) FK-RAST [10] | Bound DNA (%) c-MYC [11] [%] | Kd [11, 17] [µM] | Kd [11, 18] [µM] | ΔT1/2 (°C) F21T [12] | further results |
| --- | --- | --- | --- | --- | --- | --- | --- | --- | --- | --- | --- | --- | --- | --- | --- | --- | --- | --- | --- | --- |
| CN(C)CCCNCc1ccc(-c2nc(-c3ccc(CNCCCN(C)C)cc3)c3cc(-c4ccccc4)ccc3n2)cc1 [Compound 12b, 2,4-bis{4-[(3-dimethylaminopropyl)aminomethyl]phenyl}-6-phenylquinazoline] | 8.9 ± 0.7 °C | 14 ± 0.3 | >2.14 | 48 | 17 | 130 | 1.2 ± 0.27 | >25.0 | 0.4 ± 0.3 | 79 | 5.6 | 2.8 | 0.7 ± 0.16 | >42.8 | 17.4 ± 0.6 °C | 70 | 5.8 | 100 | – | Kd1 ([2]; Kd2 100): 5.8 µM; Kd1 ([7]; Kd2 1.5, cooperative): 9.5 µM |
| CN1CCN(CCCCNCc2ccc(-c3nc(-c4ccc(CNCCCCN5CCN(C)CC5)cc4)c4cc(-c5ccccc5)ccc4n3)cc2)CC1 [Compound 12e, 2,4-bis{4-[(4-(4-methylpiperazin-1-yl)butyl)aminomethyl]phenyl}-6-phenylquinazoline] | 22.7 °C and 22.7 ± 0.4 °C | 13 ± 0.2 | – | 36 | 30 | 280 | 2.19 ± 0.41 | – | 5.4 ± 1.6 | 79 | 6.2 | 2.2 | 0.89 ± 0.46 | – | 33.1 °C and 33.1 ± 2.1 °C | 75 | 4.3 | 74 | 33.9 °C and 33.9 ± 0.5 °C | Kd1 ([2]; Kd2 74): 4.3 µM; Kd1 ([7]; Kd2 1.9, cooperative): 14 µM |
| CN(C)CCCNCc1ccc(-c2cc(-c3ccc(CNCCCN(C)C)cc3)c3cc(-c4ccccc4)ccc3n2)cc1 [Compound 13a, 2,4-bis{4-[(3-dimethylaminopropyl)aminomethyl]phenyl}-6-phenylquinoline] | 7.7 ± 0.6 °C | 10 ± 0.4 | >3.0 | 53 | 14 | 95 | 0.9 ± 0.04 | >33.3 | 0.4 ± 0.1 | 92 | 1.6 | 0.75 | 0.58 ± 0.02 | >51.7 | 15.0 ± 0.3 °C | 78 | 3.8 | 36 | 21.5 ± 0.4 °C | Kd1 ([2]; Kd2 36): 3.8 µM; Kd1 ([7]; Kd2 7.1): 3.7 µM |
| CN1CCN(CCCCNCc2ccc(-c3cc(-c4ccc(CNCCCCN5CCN(C)CC5)cc4)c4cc(-c5ccccc5)ccc4n3)cc2)CC1 [Compound 13d, 2,4-bis{4-[(4-(4-methylpiperazin-1-yl)butyl)aminomethyl]phenyl}-6-phenylquinoline] | 5.0 ± 1.1 °C | 14 ± 0.3 | – | 18 | 85 | 460 | 2.1 ± 0.09 | – | 0.8 ± 0.2 | 33 | 53 | 20 | 1.64 ± 0.11 | – | 12.7 ± 2.2 °C | 44 | 20 | 440 | 8.0 ± 1.5 °C | Kd1 ([2]; Kd2 440): 20 µM; Kd1 ([7]; Kd2 83): 29 µM |
